≈ marks a conversion by molar mass, not a printed value. Where only a bound is given, the exact number is not on record here.

From ChEMBL document CHEMBL3045339, “Synthesis of benzoxazoles, benzothiazoles and benzimidazoles and evaluation of their antifungal, insecticidal and herbicidal activities” (1992) come the findings set out here.

Type in all cases: functional
Test [1] concerns Persicaria hydropiper. The experiment in a line: Herbicidal activity against Persicaria hydropiper assessed as disease control at 1000 ppm treated in foliage during 15 to 20 days relative to control.
Test [2] concerns Oryza sativa. Kind of test: Herbicidal activity against Oryza sativa assessed as disease control at 1000 ppm treated in paddy field during 15 to 20 days relative to control.
Test [3] has as its system Fusarium fujikuroi. Kind of test: Antifungal activity against Fusarium fujikuroi after 7 days. Further details: concentration or dose not given beside the values.
In test [4] the test system is Panonychus citri. Kind of test: Insecticidal activity against Panonychus citri at 500 ppm up to 21 days.
Test [5] concerns Escherichia coli. The experiment in a line: Antibacterial activity against Escherichia coli after 48 hr.
Test [6] has as its system Echinochloa crus-galli. The experiment in a line: Herbicidal activity against Echinochloa crus-galli (barnyard grass) assessed as disease control at 1000 ppm treated in foliage during 15 to 20 days relative to control.
Test [7] relates to Cyperus compressus. The experiment in a line: Herbicidal activity against Cyperus compressus assessed as disease control at 1000 ppm treated in paddy field during 15 to 20 days relative to control.
In test [8] the test system is Bacillus subtilis. Kind of test: Antibacterial activity against Bacillus subtilis after 48 hr.
Test [9] has as its system Echinochloa crus-galli. Kind of test: Herbicidal activity against Echinochloa crus-galli (barnyard grass) assessed as disease control at 1000 ppm treated in soil during 15 to 20 days relative to control.
Test [10] relates to Chenopodium album. Kind of test: Herbicidal activity against Chenopodium album assessed as disease control at 1000 ppm treated in foliage during 15 to 20 days relative to control.
For test [11], the system named is Pyricularia oryzae. The experiment in a line: Antifungal activity against Magnaporthe oryzae after 7 days. Set-up: concentration or dose not given beside the values.
Test [12] has as its system Persicaria hydropiper. The experiment in a line: Herbicidal activity against Persicaria hydropiper assessed as disease control at 1000 ppm treated in soil during 15 to 20 days relative to control.
In test [13] the test system is Xanthomonas axonopodis. Kind of test: Antibacterial activity against Xanthomonas axonopodis after 7 days. Further details: concentration or dose not given beside the values.
In test [14] the test system is Eleusine indica. The experiment in a line: Herbicidal activity against Eleusine indica assessed as disease control at 1000 ppm treated in foliage during 15 to 20 days relative to control.
For test [15], the system named is Amaranthus viridis. Kind of test: Herbicidal activity against Amaranthus viridis assessed as disease control at 1000 ppm treated in foliage during 15 to 20 days relative to control.
Test [16] deals with Botrytis cinerea. Kind of test: Antifungal activity against Botryotinia fuckeliana after 7 days. Set-up: concentration or dose not given beside the values.
The test system of test [17] is Eleusine indica. Kind of test: Herbicidal activity against Eleusine indica assessed as disease control at 1000 ppm treated in soil during 15 to 20 days relative to control.
Test [18] has as its system Mycobacterium. Kind of test: Antibacterial activity against Mycobacterium ovicum after 48 hr.
The test system of test [19] is Pseudomonas aeruginosa. Kind of test: Antibacterial activity against Pseudomonas aeruginosa after 48 hr.
Test [20] deals with Staphylococcus aureus. The experiment in a line: Antibacterial activity against Staphylococcus aureus after 48 hr.
Test [21] relates to Amaranthus viridis. Kind of test: Herbicidal activity against Amaranthus viridis assessed as disease control at 1000 ppm treated in soil during 15 to 20 days relative to control.
In test [22] the test system is Echinochloa crus-galli. The experiment in a line: Herbicidal activity against Echinochloa crus-galli (barnyard grass) assessed as disease control at 1000 ppm treated in paddy field during 15 to 20 days relative to control.
In test [23] the test system is Pseudoperonospora cubensis. The experiment in a line: Antifungal activity against Pseudoperonospora cubensis after 7 days. Set-up: concentration or dose not given beside the values.
Test [24] concerns Chenopodium album. The experiment in a line: Herbicidal activity against Chenopodium album assessed as disease control at 1000 ppm treated in soil during 15 to 20 days relative to control.
The test system of test [25] is Panonychus citri. The experiment in a line: Insecticidal activity against Panonychus citri at 200 ppm up to 21 days.

Consider `Clc1ccc2nc(-c3ccccn3)[nH]c2c1`, for which the Activity in test [1] was less than 39%; in test [2], less than 39%; in [3] it was less than 39%; in [4], 32.5%; in test [6], less than 39%; in [7] it was less than 39%. In addition, the Activity is given as less than 39% in test [9]; less than 39% in [10]; 60% in test [11]; less than 39% in [12]; 60% in test [13]; less than 39% in test [14]. Besides, the Activity in test [15] is less than 39%; in test [16], more than 80%; in test [17], less than 39%; in test [21] it was less than 39%; in [22], less than 39%; in [23] it was more than 80%. For the same compound, in [24], the Activity is less than 39%. In addition, the minimum inhibitory concentration (MIC) (usually the lowest concentration found to suppress growth) in [5] came to 50 µg/mL (≈ 218 µM); in test [8], 50 µg/mL (≈ 218 µM); in [18], 50 µg/mL (≈ 218 µM); in test [19], 100 µg/mL (≈ 435 µM); in test [20], 50 µg/mL (≈ 218 µM).
`OC(c1ccc(Cl)cc1)(c1ccc(Cl)cc1)C(Cl)(Cl)Cl` [DICOFOL] came in with an Activity in [25] of 98.3%.
